From patent publication US20110183978A1, “Phenylpyri(mi)dinylazoles” (Bayer CropScience AG, priority 2009, published 2011)
Like-named read-outs stand apart in the source and are kept apart here.

What was measured:
Fusarium graminearum = assay: microbe, parasite or virus in culture; format: cell-based
Alternaria solani = assay: Example M: in vivo test on Alternaria solani (leaf blotch disease/tomato/protective); conditions: 168 h, tomato, protective, 500 ppm active substance, assessed 7 days after inoculation, read-out: % Wirkungsgrad (activity level)
Procedure: Solvent: 49 parts by weight N,N-dimethylformamide Emulsifier: 1 part by weight alkylaryl polyglycol ethers For the preparation of a suitable active substance preparation, 1 part by weight of active substance is mixed with the stated quantities of solvent and emulsifier and the concentrate is diluted to the desired concentration with water. For the testing for protective activity, young tomato plants are sprayed with the active substance preparation at the stated application dosage. […] 7 days after the inoculation, the assessment takes place.

[1] = 72 h, read-out: % Inhibition des Pilzwachstums bei 50 μM
[2] = 168 h, read-out: % Inhibition der DON/AcDON produktion bei 50 μM
[3] = LogPA (logP of the stated pure compound or, in a mixture, of the main isomer, 1-substituted 3-aryl-1H-pyrazole)

SMILES	inhibition at 50 µM (Fusarium graminearum; [1]) [%]	inhibition at 50 µM (Fusarium graminearum; [2]) [%]	pest or weed control at 500 ppm (Alternaria solani) [%]	chromatographic logP (physchem; [3])	chromatographic logP (physchem; LogPA)
O=C1OCCC1n1cc(-c2ccncc2)c(-c2ccc(F)cc2)n1 (stereo not drawn) [Compound 142]	0	89	94	0.95	–
CC(C)Cn1cc(-c2ccncc2)c(-c2ccc(F)c(C#N)c2)n1 [Compound 154]	0	93	–	1.65	–
CCC(=O)Nc1cc(-c2cn(CC(C)C)nc2-c2ccc(F)c(C#N)c2)ccn1 [Compound 230]	0	97	–	–	2.67
COCC(=O)Nc1cc(-c2cn(CC(C)C)nc2-c2ccc(F)c(C#N)c2)ccn1 [Compound 246]	88	99	–	–	2.98
CC(C)Cn1cc(-c2ccnc(NC(=O)CC3CC3)c2)c(-c2ccc(F)c(C#N)c2)n1 [Compound 252]	0	99	–	–	3.14
CC(C)Cn1cc(-c2ccnc(NC(=O)C(C)C)c2)c(-c2ccc(F)c(C#N)c2)n1 [Compound 255]	0	96	–	–	3.03
CC(C)Cn1cc(-c2ccnc(NC(=O)C3CC3)c2)c(-c2ccc(F)c(C#N)c2)n1 [Compound 261]	39	99	–	–	2.77
CCOC(=O)Nc1cc(-c2cn(CC(C)C)nc2-c2ccc(F)c(C#N)c2)ccn1 [Compound 265]	9	98	–	–	3.19
CC(C)n1cc(-c2ncnc3[nH]cnc23)c(-c2ccc(F)cc2)n1 [Compound 282]	–	–	70	–	1.79
CCC(=O)Nc1cc(-c2cn(Cc3cccc(C#N)c3)nc2-c2ccc(F)cc2)ccn1 [Compound 302]	–	–	95	–	2.38
CC(C1CC1)n1cc(-c2ccncc2)c(-c2ccc(F)cc2)n1 (stereo not drawn) [Compound 305]	–	–	100	–	1.59
CC(C)n1cc(-c2ncnc3[nH]ccc23)c(-c2ccc(F)cc2)n1 [Compound 310]	–	–	95	–	1.61
CC(Nc1cc(-c2cn(CC3CC3)nc2-c2ccc(F)cc2)ccn1)C(F)(F)F (stereo not drawn) [Compound 317]	–	–	70	–	2.33
CC(C)n1cc(-c2ccnc(NC(C)C(F)(F)F)c2)c(-c2ccc(F)cc2)n1 (stereo not drawn) [Compound 318]	–	–	80	–	2.26
CC(Nc1cc(-c2cn(C)nc2-c2ccc(F)cc2)ccn1)C(F)(F)F (stereo not drawn) [Compound 319]	–	–	90	–	1.73
COCC(=O)Nc1cc(-c2cn(C3CC3)nc2-c2ccc(F)cc2)ccn1 [Compound 321]	–	–	70	–	2.37
CCOC(=O)CC(CC)CC(=O)Nc1cc(-c2cn(CC)nc2-c2ccc(F)cc2)ccn1 (stereo not drawn) [Compound 332]	–	–	90	–	2.9
C[C@H](O)C(=O)Nc1cc(-c2cn(C)nc2-c2ccc(F)cc2)ccn1 [Compound 353]	–	–	80	–	1.57
CC(C)Nc1nccc(-c2cn(C)nc2-c2ccc(F)cc2)n1 [Compound 361]	–	–	70	–	1.65
CC(C)Nc1nccc(-c2cn(CCC#N)nc2-c2ccc(F)cc2)n1 [Compound 362]	–	–	80	–	1.74
C#CCn1cc(-c2ccnc(NC(C)C)n2)c(-c2ccc(F)cc2)n1 [Compound 363]	–	–	90	–	1.99
CC(C)Nc1nccc(-c2cn(CC(F)F)nc2-c2ccc(F)cc2)n1 [Compound 364]	–	–	95	–	2.05
CCC(=O)Nc1nccc(-c2cn(CC(C)C)nc2-c2ccc(F)cc2)n1 [Compound 365]	–	–	80	–	2.7
CCn1cc(-c2ccnc(NC(C)C)n2)c(-c2ccc(F)cc2)n1 [Compound 370]	–	–	95	–	1.91
